From ChEMBL document CHEMBL1201862, “PubChem BioAssay data set” (2004)
Activity calls are given as the source filed them.

Key:
[1] = target: NADPH oxidase 1 (Homo sapiens, UniProt Q9Y5S8); experiment: Late-stage luminescence-based cell-based dose response assay to identify inhibitors of NADPH oxidase 1 (NOX1): Purchased analogs 2.; assay type: functional
[2] = target: Paired box protein Pax-8 (Homo sapiens, UniProt Q06710); experiment: inhibitors of PAX8-driven TPO luciferase reporter, dose response, RMG-I cells, cherry-pick (AID 687027); assay type: functional, cell-based;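 further: luciferase reporter driven by Pax8 target thyroperoxidase promoter measured by SteadyGlo luminescence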
Paired box protein Pax-8, sequence (Q06710 whole entry): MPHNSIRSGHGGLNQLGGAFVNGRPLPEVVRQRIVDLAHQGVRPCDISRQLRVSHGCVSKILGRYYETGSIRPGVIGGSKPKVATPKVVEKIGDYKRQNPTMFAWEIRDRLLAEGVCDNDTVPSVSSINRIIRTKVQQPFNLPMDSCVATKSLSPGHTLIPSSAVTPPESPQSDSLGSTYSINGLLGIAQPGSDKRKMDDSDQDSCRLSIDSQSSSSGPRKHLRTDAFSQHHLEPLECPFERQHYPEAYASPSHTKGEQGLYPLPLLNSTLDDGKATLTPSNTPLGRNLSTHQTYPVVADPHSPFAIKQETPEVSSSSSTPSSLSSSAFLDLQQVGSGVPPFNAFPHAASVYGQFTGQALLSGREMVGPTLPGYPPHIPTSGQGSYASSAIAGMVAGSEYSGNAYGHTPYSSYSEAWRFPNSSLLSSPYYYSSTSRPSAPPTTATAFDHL

[3] = PAX2 cell-based inhibition, dose response, selectivity assay for PAX8 inhibitor project, plate reader, dry powder samples (AID 743048); assay type: functional;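 further: HEK293 cells carrying a WT1 promoter luciferase reporter driven by expressed Pax2; potency is for inhibition of Pax2 driven reporter signal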
[4] = PAX5 activity inhibitors, dose response, selectivity assay for PAX8 inhibitor project, cell-based, plate reader, dry powder samples (AID 743047); assay type: functional;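 further: HEK293 cells carrying a Pax5 driven CD19 promoter luciferase reporter; potency of inhibitors that lower reporter luminescence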
[5] = cytotoxicity dependent on PAX8, dose response, cell-based, plate reader, dry powder (AID 743049); assay type: functional
[6] = Inhibition of T. cruzi Tulahuen strain amastigotes in L-6 muscle cells Measured in Cell-Based and Microorganism Combination System Using Plate Reader - 2138-03_Inhibitor_Dose_CherryPick_Activity.; assay type: functional; conditions: Rattus norvegicus, L6
[7] = cytotoxicity in L-6 rat myocytes, dose response, cytotoxicity control, cell-based, plate reader, cherry-pick (AID 651896); assay type: functional
[8] = Inhibition of Plasmodium falciparum NF54 Measured in Cell-Based System Using Plate Reader - 2138-11_Inhibitor_Dose_CherryPick_Activity.; assay type: functional
[9] = L. donovani amastigote growth inhibition, dose response, axenic amastigotes, plate reader, cherry pick (AID 651891); assay type: functional, cell-based; conditions: Leishmania donovani
[10] = intracellular Trypanosoma cruzi inhibitors in host cells – cell-based, plate reader, cherry-pick samples, set 3, dose response (AID 651818); assay type: functional;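 further: compounds incubated with infected cells for about four days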
[11] = T. b. rhodesiense proliferation inhibition, dose response, STIB900 strain, plate reader, cherry pick (AID 651893); assay type: functional, cell-based; conditions: Trypanosoma brucei
[12] = T. cruzi growth inhibition in host cells, dose response, cell-based, plate reader, dry powder, set 2 (AID 652275); assay type: functional
[13] = growth inhibition of intracellular T. cruzi, dose response, cell-based, plate reader, dry powder samples (AID 651845); assay type: functional
[14] = T. cruzi intracellular amastigote growth inhibition, dose response, imaging, CA-I/72 strain, bovine embryo skeletal muscle, dry powder (AID 651885); assay type: functional, cell-based
[15] = target: Heat shock protein HSP90 (Homo sapiens, UniProt P07900+P08238); experiment: tumor Hsp90 inhibitor potency, dose response (AID 712); assay type: functional
[16] = target: T1, Mannose-6-phosphate isomerase (Homo sapiens, UniProt P34949); experiment: human PMI inhibitors, high substrate, primary screen, biochemical, fluorescence intensity, high mannose 6-phosphate (AID 1220)
T1 sequence (P34949 whole entry): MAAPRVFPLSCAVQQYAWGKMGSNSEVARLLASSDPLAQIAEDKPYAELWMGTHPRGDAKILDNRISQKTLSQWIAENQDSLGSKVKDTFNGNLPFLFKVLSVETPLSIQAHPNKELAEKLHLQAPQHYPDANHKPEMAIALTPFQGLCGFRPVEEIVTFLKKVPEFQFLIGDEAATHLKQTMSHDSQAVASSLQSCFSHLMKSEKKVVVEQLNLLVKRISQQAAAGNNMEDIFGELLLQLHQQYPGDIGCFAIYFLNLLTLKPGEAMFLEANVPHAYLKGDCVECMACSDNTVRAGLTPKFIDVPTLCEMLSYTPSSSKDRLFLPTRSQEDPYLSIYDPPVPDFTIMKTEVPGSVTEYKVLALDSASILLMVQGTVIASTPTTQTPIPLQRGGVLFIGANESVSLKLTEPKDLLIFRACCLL

[17] = P. falciparum Dd2 growth inhibitors, dose response, SYBR Green, dry powder samples, set 9 (AID 1159568); assay type: functional, cell-based
[18] = P. falciparum 3D7-ScDHODH growth inhibitors, dose response, SYBR Green, dry powder samples (AID 1159570); assay type: functional, cell-based;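 further: parasite growth measured after 72 hours of compound exposure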
[19] = HepG2 cell cytotoxicity, dose response, cytotoxicity control, plate reader, dry powder samples (AID 1159569); assay type: functional, cell-based;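 further: inhibitor potency with signal falling toward the positive control level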
[20] = P. falciparum Dd2 growth inhibitors, dose response, SYBR Green, cherry-picked samples (AID 1159567); assay type: functional, cell-based
[21] = P. falciparum Dd2 growth inhibitors, dose response, SYBR Green, dry powder samples (AID 1159566); assay type: functional, cell-based;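 further: potency for growth inhibition with lower SYBR green DNA signal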
[22] = P. falciparum ATP4 D1247Y mutant growth inhibitors, dose response, NITD609-resistant line, SYBR Green, dry powder (AID 1159571); assay type: functional, cell-based;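 further: parasites synchronized at ring stage by sorbitol before testing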
[23] = half-maximal inhibitory concentration for glucagon-like peptide-1 release, STC-1 cell line, dose-response (AID 1117345); assay type: functional, cell-based
[24] = Glucagon-like peptide 1 release potency, NCI-H716 cell line, dose-response, half-maximal inhibitory concentration (AID 1117344); assay type: functional, cell-based
[25] = HeLa 2N DNA content increase, dose response, cell-based, IC50 (AID 1117349); assay type: functional
[26] = HeLa 4N DNA content increase, dose response, cell-based, IC50 (AID 1117351); assay type: functional
[27] = Dose-response inhibition of insulin secretion in a rat insulinoma line at 5 mM glucose (AID 1117331); assay type: functional, cell-based; conditions: INS-1E
[28] = cells; assay type: functional, cell-based; conditions: INS-1E

NADPH oxidase 1, sequence (Q9Y5S8 whole entry): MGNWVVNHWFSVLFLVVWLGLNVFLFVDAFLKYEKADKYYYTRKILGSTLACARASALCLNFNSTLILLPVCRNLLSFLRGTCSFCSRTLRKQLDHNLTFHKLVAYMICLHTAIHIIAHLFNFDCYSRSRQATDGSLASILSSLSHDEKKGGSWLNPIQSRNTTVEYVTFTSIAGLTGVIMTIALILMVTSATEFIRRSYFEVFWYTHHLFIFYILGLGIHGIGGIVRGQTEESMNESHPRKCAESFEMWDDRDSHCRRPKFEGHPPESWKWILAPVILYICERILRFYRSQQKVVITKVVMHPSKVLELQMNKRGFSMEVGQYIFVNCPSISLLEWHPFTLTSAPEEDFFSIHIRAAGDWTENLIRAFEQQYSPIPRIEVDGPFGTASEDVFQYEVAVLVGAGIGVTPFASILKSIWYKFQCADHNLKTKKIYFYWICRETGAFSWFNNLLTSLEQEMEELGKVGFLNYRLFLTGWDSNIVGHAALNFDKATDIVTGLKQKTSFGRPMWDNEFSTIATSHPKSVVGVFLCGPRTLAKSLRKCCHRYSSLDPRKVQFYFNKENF

With `CN(CCO)c1ccc(/C=N/Nc2c(F)c(F)nc(F)c2F)cc1` the IC50 [1] was 1.11 µM (active).

For `C[C@H](CO)N1C[C@H](C)[C@@H](CN(C)S(=O)(=O)c2ccc(-c3ccccc3)cc2)OCc2cn(nn2)CCCC1=O`, the AC50 [2] was 3.99 µM (active), the AC50 [3] was > 70 µM (inactive) and the AC50 [4] was > 70 µM (inactive). For the same compound, the AC50 [5] was > 70 µM (inactive).

For `COc1ccc(CN(C)C[C@H]2Oc3c(NC(=O)c4ccncc4)cccc3C(=O)N([C@@H](C)CO)C[C@@H]2C)cc1`, the IC50 [6] was 8.41 µM (inactive), the IC50 [7] was > 100 µM (inactive) and the IC50 [8] was 8.41 µM (inactive). The IC50 [9] was > 100 µM (inactive), the AC50 [10] was 0.25 µM (active) and the IC50 [11] was 15.4 µM (inactive). For the same compound, the AC50 [12] was 0.127 µM (active), the AC50 [13] was 0.127 µM (active) and the IC50 [14] was 0.478 µM (active).

For `CCOC(=O)c1c(C)oc2c1c(/C=N/CC1CCCO1)c(O)c1ccccc12` (stereo not drawn), the IC50 [15] was 13.307 µM and the IC50 [16] was > 50 µM (not active).

For `O=C(Nc1ccccc1F)N1CCCCN2[C@H](CO)[C@@H](c3ccc(/C=C/c4ccccc4)cc3)[C@@H]2C1`, the AC50 [17] was 6.45 µM (active).

For `C[C@H](CO)N1C[C@H](C)[C@H](CN(C)S(=O)(=O)c2ccc(F)cc2)OCc2ccccc2-c2c(n(C)c3ccccc23)C1=O`, the AC50 [18] was 0.572 µM (active), the AC50 [19] was 7.35 µM (active) and the AC50 [20] was 1.1 µM (active). For the same compound, the AC50 [21] was 0.36 µM (active) and the AC50 [22] was 0.481 µM (active).

With `c1ccc2sc(SSc3nc4ccccc4s3)nc2c1` [BENZOTHIAZYL DISULFIDE] the IC50 [23] was 5.58 µM (inactive) and the IC50 [24] was 9.23 µM (inactive).

In the case of `COC(=O)Nc1nc2cc(C(=O)c3ccccc3)ccc2[nH]1` [MEBENDAZOLE], the IC50 [25] is reported as 0.0761 µM (active) and the IC50 [26] is reported as 0.08 µM (active).

For `Cc1ccc(S(=O)(=O)NC(=O)NN2CCCCCC2)cc1` [TOLAZAMIDE], the IC50 [27] was 6.98 µM (inactive) and the IC50 [28] was > 33.3 µM (inactive).
